Data: patent US6620961B1, “Biarylalkylenecarbamic acid derivatives and bacteriocides for agricultural and horticultural use” (Kumiai Chemical Industry Co., Ltd., priority 1997, dated 2003)

What was measured:
Erysiphe graminis = test: Test for Preventive Effect on Wheat Powdery Mildew; type: in vivo; parameters: key: A: No diseased area; B: Diseased area of less than 25%; C: Diseased area of at least 25% but less than 50%; Diseased area of at least 50%; conditions: wheat seedlings (Norin-61-go), 500 ppm active ingredient, 10 ml per pot, 10 days after inoculation
Protocol: [table] Test for Preventive Effect on Wheat Powdery Mildew 9 wheat seeds (variety: […] Then, the seedlings were inoculated with […] graminis spores in suspension and placed in a greenhouse at 25 to 30° C. 10 days after the inoculation, the total diseases area of the first leaves in each pot was observed and evaluated on the basis of the standards shown in Table 59. The results are shown in Tables 67 to 71.

Venturia inaequalis = test: Test for Preventive Effect on Apple Scab; type: in vivo; parameters: key: A: No diseased area; B: Diseased area of less than 25%; C: Diseased area of at least 25% but less than 50%; Diseased area of at least 50%; conditions: 14 days after inoculation; for Evaluation (diseased areas of the upper two of the inoculated leaves): apple seedlings, wettable powder at 500 ppm active ingredient, preventive; for Evaluation (diseased area of the upper two inoculated leaves): apple seedlings (Kogyoku), 500 ppm active ingredient, 20 ml per pot
Protocol: [table] Test for Preventive Effect on Apple Scab 5 apple seeds (variety: Kogyoku) were sown in each 9 cm×9 cm polyvinyl chloride pot and grown in a greenhouse for 20 days. […] Then, the seedlings were inoculated with Venturia inaequalis spores in suspension by spraying and immediately placed in a moist chamber at 22° C. for 48 hours. Thereafter, the seedlings were placed in a greenhouse for development of the disease. 14 days after the inoculation, the diseased areas of the upper two of the inoculated leaves were observed and evaluated on the basis of the standards shown in Table 59.

SMILES | Evaluation (total diseased area of the first leaves in each pot) (Erysiphe graminis) | Evaluation (diseased areas of the upper two of the inoculated leaves) (Venturia inaequalis) | Evaluation (diseased area of the upper two inoculated leaves) (Venturia inaequalis)
C=CCN(Cc1cccc(-c2ccccc2)c1)C(=O)OC [1-168] | A | A | 
C#CCN(Cc1cccc(-c2ccccc2)c1)C(=O)OC [1-178, Methyl N-(3-phenylbenzyl)-N-(2-propynyl)carbamate] | A | A | 
COCN(Cc1cccc(-c2ccccc2)c1)C(=O)OC [1-192, Methyl N-methoxymethyl-N-(3-phenylbenzyl)carbamate] | A | A | 
COCN(Cc1cccc(-c2ccccc2C)c1)C(=O)OC [1-193] | B (Diseased area of less than 25%) | A | 
COCN(Cc1cccc(-c2cccc(C)c2)c1)C(=O)OC [1-194] | A | A | 
COCN(Cc1cccc(-c2ccc(C)cc2)c1)C(=O)OC [1-195] | A | A | 
COCN(Cc1cccc(-c2ccc(OC)cc2)c1)C(=O)OC [1-198] | A | A | 
COCN(Cc1cccc(-c2ccc(F)cc2)c1)C(=O)OC [1-201] | A | A | 
COCN(Cc1cccc(-c2ccccc2Cl)c1)C(=O)OC [1-202] | A | A | 
CN(C)C(=O)NCc1cccc(-c2ccccc2)c1 [1-262] |  | B (Diseased area of less than 25%) | 
COC(=O)N(Cc1cccc(-c2ccccc2)c1)OC [1-264] | A | A | 
COC(=O)N(Cc1cccc(-c2cccc(Cl)c2)c1)OC [1-275] | A | A | 
COC(=O)N(Cc1cccc(-c2cccc(C(F)(F)F)c2)c1)OC [1-277] | A | A | 
COC(=O)NCc1ccc(F)c(-c2ccccc2)c1 [2-17] | B (Diseased area of less than 25%) | A | 
COC(=O)NCc1ccc(F)c(-c2ccc(Cl)cc2)c1 [2-21] | B (Diseased area of less than 25%) | A | 
COC(=O)NCc1ccc(F)c(-c2cccc(C)c2)c1 [2-22] | B (Diseased area of less than 25%) | A | 
COC(=O)NCc1cc(C)cc(-c2ccc(Cl)cc2)c1 [2-95] | A | A | 
COC(=O)NCc1cc(C)cc(-c2ccc(C)cc2)c1 [2-97] | A | A | 
CCc1ccc(-c2ccc(F)c(CNC(=O)OC)c2)cc1 [2-112] | B (Diseased area of less than 25%) | A | 
COC(=O)NCc1cc(-c2ccc(C(C)C)cc2)ccc1F [2-114] | A | A | 
COC(=O)NCc1cc(-c2ccc(C(F)(F)F)cc2)ccc1OC [2-344] |  |  | A
COC(=O)NCc1cc(-c2cccc(C(F)(F)F)c2)ccc1OC(F)F [2-365] | B (Diseased area of less than 25%) |  | A
COC(=O)NCc1cc(-c2ccc(F)c(F)c2)ccc1F [2-412] | A |  | A
COC(=O)NCc1cc(-c2ccc(C(C)=O)cc2)ccc1Cl [2-451] |  |  | B (Diseased area of less than 25%)
COC(=O)NCc1cc(-c2ccc(F)c(F)c2)ccc1Cl [2-461] | A |  | A
COC(=O)NCc1cc(-c2ccc(F)c(Cl)c2)ccc1Cl [2-465] | A |  | A
